# Measurements published in US10815238B2, “Antimicrobial compounds and methods of making and using the same” (BIOVERSYS AG, priority 2013, dated 2020).
# Test system: Eschericia coli (E. coli) strain ATCC25922
# Test: Standard microdilution assay, MIC against E. coli ATCC25922
# Type: cell-based
# Conditions: Escherichia coli; E. coli strain ATCC25922, standard microdilution assay; cutoff 16 micrograms/mL; read-out: MIC E. Coli
# Outline: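 MIC determined by broth microdilution following CLSI protocols, with reference strains run in parallel for quality control. Activity scored +/− at a cutoff of 16 micrograms/mL.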
row,MIC [µg/mL],Compound
1,< 16,C[C@H](N)CCCc1cc(Cl)c(F)c(-c2cc3cn(-c4ccc([C@H](C)NCCCN(C)C(=N)N)cc4)c(=O)nc3[nH]2)c1 [Compound 205]
2,< 16,C=CC[C@H](CCNCc1ccc(-n2cc3cc(-c4cc(CCC[C@H](C)N)cc(Cl)c4F)[nH]c3nc2=O)cc1)NC(=N)N [Compound 207]
3,< 16,CNCCCN[C@@H](C)c1ccc(-n2cc3cc(-c4cc(CCC[C@H](C)N)cc(Cl)c4F)[nH]c3nc2=O)cc1 [Compound 208]
4,< 16,C[C@H](N)CCCc1cc(Cl)c(F)c(-c2cc3cn(-c4ccc(CN[C@H](C)CCNC(=N)N)cc4)c(=O)nc3[nH]2)c1 [Compound 209]
5,< 16,C=CCN(CCCN[C@@H](C)c1ccc(-n2cc3cc(-c4cc(CCC[C@H](C)N)cc(Cl)c4F)[nH]c3nc2=O)cc1)C(=N)N [Compound 212]
6,< 16,C=CCNCCCN[C@@H](C)c1ccc(-n2cc3cc(-c4cc(CCC[C@H](C)N)cc(Cl)c4F)[nH]c3nc2=O)cc1 [Compound 213]
7,< 16,C[C@H](N)CCCc1cc(Cl)c(F)c(-c2cc3cn(-c4ccc([C@H](C)N[C@@H](C)CCNC(=N)N)cc4)c(=O)nc3[nH]2)c1 [Compound 219]
8,< 16,C[C@H](N)CCCc1cc(Cl)c(F)c(-c2cc3cn(-c4ccc([C@H](C)NCC[C@H](C)N)cc4)c(=O)nc3[nH]2)c1 [Compound 221]
9,< 16,C[C@H](N)CCCc1cc(Cl)c(F)c(-c2cc3cn(-c4ccc([C@H](C)NCC[C@H](C)NC(=N)N)cc4)c(=O)nc3[nH]2)c1 [Compound 222]
10,< 16,C[C@H](N)CCCc1cc(Cl)c(F)c(-c2cc3cn(-c4ccc([C@H](C)N[C@H](C)CCNC(=N)N)cc4)c(=O)nc3[nH]2)c1 [Compound 225]
11,< 16,C[C@H](N)CCCc1cc(Cl)c(F)c(-c2cc3cn(-c4ccc(C[C@@H](CCCN)NC(=N)N)cc4)c(=O)nc3[nH]2)c1 [Compound 229]
12,< 16,C=C[C@H](CCN[C@@H](C)c1ccc(-n2cc3cc(-c4cc(CCC[C@H](C)N)cc(Cl)c4F)[nH]c3nc2=O)cc1)NC(=N)N [Compound 236]
13,< 16,C[C@H](N)CCCc1cc(Cl)c(F)c(-c2cc3cn(-c4ccc([C@H](C)NCC[C@@H](CCCO)NC(=N)N)cc4)c(=O)nc3[nH]2)c1 [Compound 239]
14,< 16,C[C@H](N)CCCc1cc(OC(F)(F)F)c(F)c(-c2cc3cn(-c4ccc([C@H](C)NCC[C@@H](CCCO)NC(=N)N)cc4)c(=O)nc3[nH]2)c1 [Compound 240]
15,< 16,C[C@H](N)CCCc1cc(Cl)c(F)c(-c2cc3cn(-c4ccc([C@H](C)NCC[C@H](CCO)NC(=N)N)cc4)c(=O)nc3[nH]2)c1 [Compound 244]
16,< 16,C[C@H](N)CCCc1cc(OC(F)(F)F)c(F)c(-c2cc3cn(-c4ccc([C@H](C)NCC[C@H](CCO)NC(=N)N)cc4)c(=O)nc3[nH]2)c1 [Compound 245]
17,< 16,C[C@H](N)CCCc1cc(Cl)c(F)c(-c2cc3cn(-c4ccc([C@H](C)NCC[C@@H](CCO)NC(=N)N)cc4)c(=O)nc3[nH]2)c1 [Compound 247]
18,< 16,C[C@H](N)CCCc1cc(OC(F)(F)F)c(F)c(-c2cc3cn(-c4ccc([C@H](C)NCC[C@@H](CCO)NC(=N)N)cc4)c(=O)nc3[nH]2)c1 [Compound 248]
19,< 16,C[C@H](N)CCCc1cc(Cl)c(F)c(-c2cc3cn(-c4ccc(CN[C@H](CO)CCNC(=N)N)cc4)c(=O)nc3[nH]2)c1 [Compound 249]
20,< 16,C=CC[C@H](CCN[C@@H](C)c1ccc(-n2cc3cc(-c4cc(CCC[C@H](C)N)cc(Cl)c4F)[nH]c3nc2=O)cc1)NC(=N)N [Compound 251]
21,< 16,C=CC[C@@H](CCN[C@@H](C)c1ccc(-n2cc3cc(-c4cc(CCC[C@H](C)N)cc(Cl)c4F)[nH]c3nc2=O)cc1)NC(=N)N [Compound 252]
22,< 16,C[C@H](N)CCCc1cc(Cl)c(F)c(-c2cc3cn(-c4ccc([C@H](C)NCC[C@@H](CCc5ccccc5)NC(=N)N)cc4)c(=O)nc3[nH]2)c1 [Compound 258]
23,< 16,C=CC[C@H](CCN[C@@H](C)c1ccc(-n2cc3cc(-c4cc(CCC[C@H](C)N)cc(OC(F)(F)F)c4F)[nH]c3nc2=O)cc1)NC(=N)N [Compound 260]

# Further lines, the compound ahead of its results:
row,Compound,MIC [µg/mL]
1,C=CC[C@@H](N)CCNCc1ccc(-n2cc3cc(-c4cc(CCC[C@H](C)N)cc(Cl)c4F)[nH]c3nc2=O)cc1 [Compound 206],< 16
2,C[C@H](N)CCCc1cc(Cl)c(F)c(-c2cc3cn(-c4ccc(CN[C@H](C)CCN)cc4)c(=O)nc3[nH]2)c1 [Compound 210],< 16
3,C[C@H](N)CCCc1cc(-c2cc3cn(-c4ccc([C@H](C)NCCCN(C)C(=N)N)cc4)c(=O)nc3[nH]2)cc(C(F)(F)F)c1 [Compound 211],< 16
4,C[C@H](N)CCCc1cc(-c2cc3cn(-c4ccc([C@H](C)NCCCNC(=N)N)cc4)c(=O)nc3[nH]2)c(F)c(C(F)(F)F)c1F [Compound 214],< 16
5,C=CCN(CCCN[C@@H](C)c1ccc(-n2cc3cc(-c4cc(CCC[C@H](C)N)cc(C(F)(F)F)c4)[nH]c3nc2=O)cc1)C(=N)N [Compound 215],< 16
6,C=CCNCCCN[C@@H](C)c1ccc(-n2cc3cc(-c4cc(CCC[C@H](C)N)cc(C(F)(F)F)c4)[nH]c3nc2=O)cc1 [Compound 216],< 16
7,CCc1c(F)c(CCC[C@H](C)N)cc(-c2cc3cn(-c4ccc([C@H](C)NCCCN)cc4)c(=O)nc3[nH]2)c1F [Compound 217],< 16
8,CCc1c(F)c(CCC[C@H](C)N)cc(-c2cc3cn(-c4ccc([C@H](C)NCCCNC(=N)N)cc4)c(=O)nc3[nH]2)c1F [Compound 218],< 16
9,C[C@H](N)CCCc1cc(-c2cc3cn(-c4ccc([C@H](C)N[C@@H](C)CCNC(=N)N)cc4)c(=O)nc3[nH]2)cc(C(F)(F)F)c1 [Compound 220],< 16
10,C[C@H](N)CCCc1cc(OC(F)(F)F)c(F)c(-c2cc3cn(-c4ccc([C@H](C)NCC[C@H](C)N)cc4)c(=O)nc3[nH]2)c1 [Compound 223],< 16
11,C[C@H](N)CCCc1cc(OC(F)(F)F)c(F)c(-c2cc3cn(-c4ccc([C@H](C)NCC[C@H](C)NC(=N)N)cc4)c(=O)nc3[nH]2)c1 [Compound 224],< 16
12,C[C@H](N)CCCc1cc(-c2cc3cn(-c4ccc([C@H](C)N[C@H](C)CCNC(=N)N)cc4)c(=O)nc3[nH]2)cc(C(F)(F)F)c1 [Compound 226],< 16
13,CC[C@H](NCCCNC(=N)N)c1ccc(-n2cc3cc(-c4cc(CCC[C@H](C)N)cc(OC(F)(F)F)c4F)[nH]c3nc2=O)cc1 [Compound 227],< 16
14,C[C@H](N)CCCc1cc(OC(F)(F)F)c(F)c(-c2cc3cn(-c4ccc(CN[C@H](C)CCNC(=N)N)cc4)c(=O)nc3[nH]2)c1 [Compound 228],< 16
15,C[C@H](N)CCCc1cc(Cl)c(F)c(-c2cc3cn(-c4ccc(C[C@H](N)CCCNC(=N)N)cc4)c(=O)nc3[nH]2)c1 [Compound 230],< 16
16,C[C@H](N)CCCc1cc(OC(F)(F)F)c(F)c(-c2cc3cn(-c4ccc(C[C@H](N)CCCNC(=N)N)cc4)c(=O)nc3[nH]2)c1 [Compound 231],< 16
17,C[C@H](N)CCCc1cc(OC(F)(F)F)c(F)c(-c2cc3cn(-c4ccc([C@H](C)N[C@@H](C)CCNC(=N)N)cc4)c(=O)nc3[nH]2)c1 [Compound 232],< 16

row,Compound,MIC [µg/mL]
1,C[C@H](N)CCCc1cc(OC(F)(F)F)c(F)c(-c2cc3cn(-c4ccc([C@H](C)N[C@H](C)CCNC(=N)N)cc4)c(=O)nc3[nH]2)c1 [Compound 233],< 16
2,C[C@H](N)CCCc1cc(OC(F)(F)F)c(F)c(-c2cc3cn(-c4ccc([C@H](N)CCCCNC(=N)N)cc4)c(=O)nc3[nH]2)c1 [Compound 234],< 16
3,C[C@H](N)CCCc1cc(-c2cc3cn(-c4ccc([C@H](N)CCCCNC(=N)N)cc4)c(=O)nc3[nH]2)cc(C(F)(F)F)c1 [Compound 235],< 16
4,C=C[C@H](CCN[C@@H](C)c1ccc(-n2cc3cc(-c4cc(CCC[C@H](C)N)cc(OC(F)(F)F)c4F)[nH]c3nc2=O)cc1)NC(=N)N [Compound 237],< 16
5,C=C[C@H](CCNCc1ccc(-n2cc3cc(-c4cc(CCC[C@H](C)N)cc(OC(F)(F)F)c4F)[nH]c3nc2=O)cc1)NC(=N)N [Compound 238],< 16
6,C[C@H](N)CCCc1cc(Cl)c(F)c(C#Cc2cn(-c3ccc([C@H](C)NCCCNC(=N)N)cc3)c(=O)nc2N)c1 [Compound 241],< 16
7,C[C@H](NCCCNC(=N)N)c1ccc(-n2cc3cc(-c4cc(CCC[C@@H](N)CO)cc(C(F)(F)F)c4)[nH]c3nc2=O)cc1 [Compound 242],< 16
8,C[C@H](NCCCNC(=N)N)c1ccc(-n2cc3cc(-c4cc(CCC[C@@H](N)CO)cc(OC(F)(F)F)c4F)[nH]c3nc2=O)cc1 [Compound 243],< 16
9,C[C@H](N)CCCc1cc(Cl)c(F)c(-c2cc3c([nH]2)NC(=O)N(c2ccc([C@H](C)NCCCNC(=N)N)cc2)C3)c1 [Compound 246],< 16
10,C[C@H](N)CCCc1cc(OC(F)(F)F)c(F)c(-c2cc3cn(-c4ccc(CN[C@H](CO)CCNC(=N)N)cc4)c(=O)nc3[nH]2)c1 [Compound 250],< 16
11,C[C@H](N)CCCc1cc(Cl)c(F)c(-c2cc3cn(-c4ccc([C@H](N)C(=O)NCCNC(=N)N)cc4)c(=O)nc3[nH]2)c1 [Compound 253],< 16
12,C[C@H](N)CCCc1cc(Cl)c(F)c(-c2cc3cn(-c4ccc([C@H](N)C(=O)NCCN)cc4)c(=O)nc3[nH]2)c1 [Compound 254],< 16
13,C[C@H](N)CCCc1cc(OC(F)(F)F)c(F)c(-c2cc3cn(-c4ccc([C@H](N)C(=O)NCCNC(=N)N)cc4)c(=O)nc3[nH]2)c1 [Compound 255],< 16
14,C[C@H](N)CCCc1cc(Cl)c(F)c(-c2cc3cn(-c4ccc([C@@H](N)C(=O)NCCNC(=N)N)cc4)c(=O)nc3[nH]2)c1 [Compound 256],< 16
15,C[C@H](N)CCCc1cc(OC(F)(F)F)c(F)c(-c2cc3cn(-c4ccc([C@@H](N)C(=O)NCCNC(=N)N)cc4)c(=O)nc3[nH]2)c1 [Compound 257],< 16
16,C[C@H](N)CCCc1cc(OC(F)(F)F)c(F)c(-c2cc3cn(-c4ccc([C@H](C)NCC[C@@H](CCc5ccccc5)NC(=N)N)cc4)c(=O)nc3[nH]2)c1 [Compound 259],< 16
